Test results reported in article PMC7219735, “Crystal structure of Thermus thermophilus methylenetetrahydrofolate dehydrogenase and determinants of thermostability” (PLoS ONE, 2020).

Target: T1, T. thermophilus methylenetetrahydrofolate dehydrogenase (TtMTHFD) (Thermus thermophilus, UniProt Q5SJ94)
T1 construct: gene folD; His-tagged (pQtev, tag removal not mentioned), expressed in E. coli BL21(DE3), 33 kDa, dimer; 277 residues in the model, one chain per asymmetric unit
T1 sequence (Q5SJ94 1-282): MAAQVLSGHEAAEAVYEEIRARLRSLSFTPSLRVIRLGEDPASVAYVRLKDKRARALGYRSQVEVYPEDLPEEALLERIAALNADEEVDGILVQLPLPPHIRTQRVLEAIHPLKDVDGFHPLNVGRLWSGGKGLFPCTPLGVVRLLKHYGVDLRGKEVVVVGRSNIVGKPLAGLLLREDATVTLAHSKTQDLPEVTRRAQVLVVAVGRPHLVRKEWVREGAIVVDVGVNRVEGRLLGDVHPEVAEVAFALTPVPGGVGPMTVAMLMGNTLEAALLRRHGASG
Experiment: X-ray crystal structure, […] A
Conditions: crystals from 800 mM potassium sodium tartrate, 100 mM HEPES pH 7.5; nucleotide binding domain; NADP+ addition not described

For `NC(=O)c1ccc[n+]([C@@H]2O[C@H](COP(=O)(O)OP(=O)(O)OC[C@H]3O[C@@H](n4cnc5c(N)ncnc54)[C@H](OP(=O)(O)O)[C@@H]3O)[C@@H](O)[C@H]2O)c1` [NADP^+], the “X-ray crystal structure, 2.15 A” value was “we were able to unambiguously identify and fit a molecule of NADP^+”.
